These results are taken from patent US20230364121A1 (priority 2020, published 2023).

The target in one data set is nsp12 NiRAN active-site (Severe acute respiratory syndrome coronavirus, UniProt P0C6X7). The data set is described as follows: biochemical. In kind it is biochemical, SARS-CoV.
The test system of data set [1] is HCoV. The data set is described as follows: microbe, parasite or virus in culture. The format is cell-based, human coronavirus.
A short description of data set [2]: Cytotoxicity in mock infected BHK cells (MTT). The format is cell-based, hamster. The following applies: hamster, mock infected BHK cells; Table 2A; MTT, 3 days. On the procedure:
(§1) To determine the cytotoxicity, cells were seeded at an initial density of 1×10^6 cells/mL in 96 well plates containing Minimum Essential Medium with Earles's salts (MEM-E), L-glutamine, 1 mM sodium pyruvate and 25 mg/L kanamycin, supplemented with 10% fetal bovine serum. Cell cultures were then incubated at 37° C. in a humidified 5% CO2 atmosphere in the absence or presence of serial dilutions of test compounds. Cell viability was determined by the MTT method.
(§2) Uninfected cells in the presence of serially diluted compound were used to assess the cytotoxicity of compounds.

A further data set concerns mock infected BHK cells. The data set is described as follows: Cytotoxicity in mock infected BHK cells (MTT). The format is cell-based, hamster. The following applies: Table 2B; MTT, 3 days. On the procedure: as §1, §2
Data set [3] concerns HCoV. Nature of the data set: microbe, parasite or virus in culture. In kind it is cell-based, human coronavirus. The following applies: unidentified human coronavirus, 72 h.
Data set [4] is described as follows: Cytotoxicity in mock infected MES-1 cells (MTT). The format is cell-based. The following applies: mock infected MES-1 cells, Table 3A. As for the experimental part: as §1
Setting [5] is: unidentified human coronavirus, BHK-21, 72 h.

In general, EC50 refers to the concentration that produces a half-maximal response. Low readings indicate greater potency, high ones weaker potency. One may read the CC50 as the concentration giving 50% cytotoxicity.

Like-named read-outs stand apart in the source and are kept apart here.

On to `Cn1c[n+]([C@@H]2O[C@H](COP(=O)([O-])OP(=O)(O)OP(=O)(O)O)[C@@H](O)[C@H]2O)c2nc(N)[nH]c(=O)c21` [^m7GTP], for which the “inhibition of nsp8 labeling / transfer of UTP to nsp8” value against nsp12 NiRAN active-site is on record as “poorly inhibit”.
On to `CNc1nc(N)nc2c1ncn2[C@@H]1O[C@H](CO[P@@](=O)(N[C@@H](C)C(=O)OC(C)C)Oc2ccccc2)[C@@H](O)[C@@]1(C)F` [drawing 232], for which the EC50 with HCoV [1] (setting [5]) is 1.6 µM. Further, the CC50 at 3 days in data set [2] was more than 100 µM.
In the case of `CNc1nc(N)nc2c1ncn2[C@@H]1O[C@H](CO[P@](=O)(N[C@@H](C)C(=O)OC(C)C)Oc2ccccc2)[C@@H](O)[C@@]1(C)F` [drawing 233], in the data set on HCoV [1] (setting [5]), the EC50 amounted to 2.5 µM. In addition, in data set [2], the CC50 at 3 days is more than 100 µM.
`CC(C)OC(=O)[C@H](C)N[P@](=O)(OCC1O[C@@H](n2ccc(=O)[nH]c2=O)[C@](C)(F)[C@@H]1O)Oc1ccccc1` (some centres unmarked) [drawing 234]: the EC50 in the data set on HCoV [1] (setting [5]) is more than 100 µM. This compound also showed a CC50 at 3 days in data set [2] of more than 100 µM.
Regarding `CC(C)(CO)C(=O)SCCOP(=O)(NCc1ccccc1)OC[C@H]1O[C@@H](n2cnc3c(=O)[nH]c(N)nc32)[C@](C)(O)[C@@H]1O` (some centres unmarked) [drawing 236], the EC50 in the data set with HCoV [1] (setting [5]) was determined as 1.7 µM. The compound further showed a CC50 at 3 days in data set [2] of 65 µM.
The matching figures for `CCC(CC)COC(=O)[C@H](C)N[P@](=O)(OC[C@H]1O[C@@](C#N)(c2ccc3c(N)ncnn23)[C@H](O)[C@@H]1O)Oc1ccccc1` [drawing 237]: 7.2 µM and more than 100 µM.
`CC(C)[C@H](N)C(=O)O[C@@H]1[C@@H](CO)O[C@@H](n2ccc(N)nc2=O)[C@]1(C)O` [drawing 238] registered an EC50 in the data set with HCoV [1] (setting [5]) of more than 100 µM. Moreover, in data set [2], the CC50 at 3 days was more than 100 µM.
In the data set with HCoV [1], `CNc1nc(N)nc2c1ncn2[C@@H]1O[C@H](CO[P@@](=O)(N[C@@H](C)C(=O)OC(C)C)Oc2ccccc2)[C@@H](O)[C@@]1(C)F` [drawing 239] yielded an EC50 of 2 µM. The CC50 with mock infected BHK cells was more than 100 µM.
Compound `CNc1nc(N)nc2c1ncn2[C@@H]1O[C@H](CO[P@](=O)(N[C@@H](C)C(=O)OC(C)C)Oc2ccccc2)[C@@H](O)[C@@]1(C)F` [drawing 240] had an EC50 in the data set on HCoV [1] of 2.9 µM. Besides, the CC50 with mock infected BHK cells was more than 100 µM.
The matching figures for `CC(C)OC(=O)[C@H](C)N[P@](=O)(OCC1O[C@@H](n2ccc(=O)[nH]c2=O)[C@](C)(F)[C@@H]1O)Oc1ccccc1` (some centres unmarked) [drawing 241]: more than 100 µM and more than 100 µM.
In the data set on HCoV [1], `CC(C)(CO)C(=O)SCCOP(=O)(NCc1ccccc1)OC[C@H]1O[C@@H](n2cnc3c(=O)[nH]c(N)nc32)[C@](C)(O)[C@@H]1O` (some centres unmarked) [drawing 243] had an EC50 of 1.9 µM. Moreover, it took 65 µM to reach half-maximal cytotoxicity in the data set on mock infected BHK cells (CC50).
The corresponding values for `CCC(CC)COC(=O)[C@H](C)N[P@](=O)(OC[C@H]1O[C@@](C#N)(c2ccc3c(N)ncnn23)[C@H](O)[C@@H]1O)Oc1ccccc1` [drawing 244] are 7 µM and more than 100 µM.
In turn, `CC(C)[C@H](N)C(=O)O[C@@H]1[C@@H](CO)O[C@@H](n2ccc(N)nc2=O)[C@]1(C)O` [drawing 245] displayed a CC50 in the data set on mock infected BHK cells of more than 100 µM.
Compound `CNc1nc(N)nc2c1ncn2[C@@H]1O[C@H](CO[P@@](=O)(N[C@@H](C)C(=O)OC(C)C)Oc2ccccc2)[C@@H](O)[C@@]1(C)F` [drawing 246] displayed a half-maximal effective concentration (EC50) in the data set on HCoV [3] of 1.6 µM. The CC50 at 3 days in data set [4] is more than 100 µM.
For the compound `CNc1nc(N)nc2c1ncn2[C@@H]1O[C@H](CO[P@](=O)(N[C@@H](C)C(=O)OC(C)C)Oc2ccccc2)[C@@H](O)[C@@]1(C)F` [drawing 247], in the data set with HCoV [3], the EC50 was determined as 2 µM. The CC50 at 3 days in data set [4] is more than 100 µM.
The matching figures for `CC(C)OC(=O)[C@H](C)N[P@](=O)(OCC1O[C@@H](n2ccc(=O)[nH]c2=O)[C@](C)(F)[C@@H]1O)Oc1ccccc1` (some centres unmarked) [drawing 248]: more than 100 µM and more than 100 µM.
The matching figures for `CC(C)(CO)C(=O)SCCOP(=O)(NCc1ccccc1)OC[C@H]1O[C@@H](n2cnc3c(=O)[nH]c(N)nc32)[C@](C)(O)[C@@H]1O` (some centres unmarked) [drawing 250]: 1.9 µM and 82 µM.
